Results published in US20130133650A1, “GAS-BASED TREATMENT FOR INFECTIVE DISEASE” (priority 2010, published 2013).

How the values were obtained:
[1] = tested on: Mycobacterium bovis BCG; conditions: cited from earlier work
[2] = tested on: THP-1 macrophage-like cells; assay: Viability of human macrophage-like cells following anaerobic shock (trypan blue exclusion); format: cell-based; conditions: uninfected differentiated THP-1 cells, various treatment times (FIG. 3(B))
Procedure: THP-1 cells were grown and induced for differentiation as above. The monolayer of differentiated macrophage-like cells was dispersed by trypsinization, after which cell suspensions were transferred to Vacutainer tubes and shocked with anaerobic gas as described for bacterial cultures. At various times, 20-microliter aliquots of suspended cells (˜10^6 cells/ml) were mixed with an equal volume of Trypan Blue staining solution (0.4% Trypan blue, Sigma Chemicals CO., St. Louis, Mo.)). Total and blue cell numbers were determined by light microscopy using a hemocytometer.
Percent of white (live) cells was plotted relative to an untreated sample.

[3] = rabbit, in vivo
[4] = tested on: M. tuberculosis H37Rv inside THP-1 macrophage-like cells; assay: Anaerobic shock of macrophage-like cells infected with M. tuberculosis, bacterial survival; conditions: treatment for the indicated times (FIG. 3(A))
[5] = tested on: M. bovis BCG; format: cell-based, Mycobacterium bovis BCG; conditions: jar flushed with gas, 1-24 hour (FIG. 5)

In the case of NCCN(CCN)/[N+]([O-])=N/O [DETA-NO, diethylene-triamine-nitric oxide adduct], the “effect of pretreatment on anaerobic shock-caused cell death” value ([1]; pretreatment before anaerobic shock) is given as “not blocked” and the “duration of sustained growth arrest” value ([1]; single treatment) is given as 72 h.

With [Ar] [argon] the “macrophage viability (trypan blue exclusion)” value [2] was “slightly reduced viability at long treatment times”, the “side-effect of one-lung anaerobic shock” value [3] was “no obvious side-effect” and the “intracellular bacillary viability” value [4] was “only reduced bacillary viability moderately”.

With [HH] [hydrogen] the “killing of bacteria on agar surface” value [5] was “killed”.
